ChEMBL document CHEMBL5465560, “Selectivity Literature for EUbOPEN Chemogenomic Library” (2024)
Blank lines part the entries; values can stand above or below the compound they belong to.

Legend:
[1] = molecular target: SRSF protein kinase 3 (Homo sapiens) (UniProt Q9UPE1); assay: Selectivity interaction (KinomeScan (DiscoverX)) EUB0001079a SRPK3; conditions: at 1 µM
[2] = molecular target: SRSF protein kinase 2 (Homo sapiens) (UniProt P78362); assay: Selectivity interaction (ActivX KiNativ screen (kinase selectivity in THP-1 cell lysates)) EUB0000639a SRPK2; assay type: subcellular; conditions: lysate
[3] = molecular target: T1, Myotonin-protein kinase (Homo sapiens) (UniProt Q09013); assay: Selectivity interaction (ProQinase) EUB0000171b DMPK
T1 sequence (whole entry): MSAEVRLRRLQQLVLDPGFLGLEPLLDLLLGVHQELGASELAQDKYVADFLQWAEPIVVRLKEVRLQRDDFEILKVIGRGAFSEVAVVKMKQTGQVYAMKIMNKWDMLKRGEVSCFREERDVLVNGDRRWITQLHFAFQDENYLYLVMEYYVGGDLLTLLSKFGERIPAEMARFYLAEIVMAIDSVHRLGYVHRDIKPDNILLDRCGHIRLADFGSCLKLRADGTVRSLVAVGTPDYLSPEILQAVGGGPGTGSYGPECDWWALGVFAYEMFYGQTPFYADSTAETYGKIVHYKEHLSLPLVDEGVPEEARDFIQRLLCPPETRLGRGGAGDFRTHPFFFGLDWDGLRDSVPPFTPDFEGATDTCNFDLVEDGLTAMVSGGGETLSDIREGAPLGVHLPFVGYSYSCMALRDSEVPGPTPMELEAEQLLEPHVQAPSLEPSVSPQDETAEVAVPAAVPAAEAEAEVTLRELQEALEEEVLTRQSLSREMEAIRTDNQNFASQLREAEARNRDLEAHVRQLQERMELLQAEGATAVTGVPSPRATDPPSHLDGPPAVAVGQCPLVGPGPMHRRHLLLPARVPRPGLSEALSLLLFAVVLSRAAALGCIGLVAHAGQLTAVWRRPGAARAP

[4] = molecular target: Serine/threonine-protein kinase 26 (Homo sapiens, UniProt Q9P289); assay: Selectivity interaction (KinomeScan (DiscoverX)) EUB0001049a STK26; conditions: at 1 µM
[5] = molecular target: T2, Tyrosine-protein kinase JAK3 (Homo sapiens) (UniProt P52333); assay: Selectivity interaction (KinomeScan (DiscoverX)) EUB0000666a JAK3; conditions: at 10 µM
T2 sequence (whole entry): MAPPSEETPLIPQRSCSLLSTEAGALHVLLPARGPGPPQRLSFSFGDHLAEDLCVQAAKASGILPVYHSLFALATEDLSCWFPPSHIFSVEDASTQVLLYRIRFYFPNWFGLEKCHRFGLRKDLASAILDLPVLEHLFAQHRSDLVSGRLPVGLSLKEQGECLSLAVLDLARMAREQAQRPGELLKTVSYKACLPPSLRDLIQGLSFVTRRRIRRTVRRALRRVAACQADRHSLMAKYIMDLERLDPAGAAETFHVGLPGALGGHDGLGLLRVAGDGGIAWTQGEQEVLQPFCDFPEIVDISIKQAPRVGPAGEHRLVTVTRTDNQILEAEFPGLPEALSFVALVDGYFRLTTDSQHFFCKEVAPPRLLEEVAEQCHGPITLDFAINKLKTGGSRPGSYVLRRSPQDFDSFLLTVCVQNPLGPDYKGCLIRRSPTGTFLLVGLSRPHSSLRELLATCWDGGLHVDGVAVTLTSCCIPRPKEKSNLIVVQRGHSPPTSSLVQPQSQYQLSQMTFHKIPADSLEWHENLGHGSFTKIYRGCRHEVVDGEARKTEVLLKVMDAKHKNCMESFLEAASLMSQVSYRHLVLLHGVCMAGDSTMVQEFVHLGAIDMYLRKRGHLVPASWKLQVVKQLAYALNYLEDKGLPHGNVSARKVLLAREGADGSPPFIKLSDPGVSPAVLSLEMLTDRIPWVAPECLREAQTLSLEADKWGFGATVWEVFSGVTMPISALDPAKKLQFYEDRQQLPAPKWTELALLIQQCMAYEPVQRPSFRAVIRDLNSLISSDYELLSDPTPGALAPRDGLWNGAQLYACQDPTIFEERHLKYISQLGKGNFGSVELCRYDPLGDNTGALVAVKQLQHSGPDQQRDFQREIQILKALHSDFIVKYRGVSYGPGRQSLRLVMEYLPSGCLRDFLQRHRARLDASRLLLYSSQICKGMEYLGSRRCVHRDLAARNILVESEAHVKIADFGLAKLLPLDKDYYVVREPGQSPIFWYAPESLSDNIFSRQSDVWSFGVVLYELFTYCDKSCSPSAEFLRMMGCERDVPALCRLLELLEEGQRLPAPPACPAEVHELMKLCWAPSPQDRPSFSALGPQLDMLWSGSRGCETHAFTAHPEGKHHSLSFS

[6] = molecular target: Serine/threonine-protein kinase SIK2 (Homo sapiens) (UniProt Q9H0K1); assay: Selectivity interaction (Kinase panel (Carna Biosciences)) EUB0001542aTs SIK2; conditions: at 1 µM
Sequence of Serine/threonine-protein kinase SIK2 (Homo sapiens) (Q9H0K1 whole entry, looked up): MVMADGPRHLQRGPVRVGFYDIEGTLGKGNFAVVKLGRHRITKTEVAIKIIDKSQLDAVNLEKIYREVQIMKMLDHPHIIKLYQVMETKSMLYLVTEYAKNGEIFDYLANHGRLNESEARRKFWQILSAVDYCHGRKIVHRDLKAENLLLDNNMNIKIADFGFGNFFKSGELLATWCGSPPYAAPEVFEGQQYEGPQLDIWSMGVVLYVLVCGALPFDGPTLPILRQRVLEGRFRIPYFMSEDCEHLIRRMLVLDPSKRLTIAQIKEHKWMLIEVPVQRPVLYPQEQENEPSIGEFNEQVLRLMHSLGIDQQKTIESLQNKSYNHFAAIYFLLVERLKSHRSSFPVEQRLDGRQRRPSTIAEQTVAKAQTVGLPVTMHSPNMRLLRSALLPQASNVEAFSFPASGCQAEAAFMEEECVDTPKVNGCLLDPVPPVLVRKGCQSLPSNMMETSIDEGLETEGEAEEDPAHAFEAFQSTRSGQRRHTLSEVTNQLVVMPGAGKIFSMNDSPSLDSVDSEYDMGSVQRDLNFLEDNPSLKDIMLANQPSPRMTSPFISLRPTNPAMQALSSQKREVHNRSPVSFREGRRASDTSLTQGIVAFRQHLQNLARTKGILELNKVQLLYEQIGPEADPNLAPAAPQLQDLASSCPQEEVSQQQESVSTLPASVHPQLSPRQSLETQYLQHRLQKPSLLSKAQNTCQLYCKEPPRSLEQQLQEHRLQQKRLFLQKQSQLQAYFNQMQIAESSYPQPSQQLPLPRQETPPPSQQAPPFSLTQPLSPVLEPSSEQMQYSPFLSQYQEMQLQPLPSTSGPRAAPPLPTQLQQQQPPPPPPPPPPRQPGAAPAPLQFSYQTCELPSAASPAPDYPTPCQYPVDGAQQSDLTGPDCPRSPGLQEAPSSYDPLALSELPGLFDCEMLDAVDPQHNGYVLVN

Sequence of SRSF protein kinase 2 (Homo sapiens) (P78362 whole entry, looked up): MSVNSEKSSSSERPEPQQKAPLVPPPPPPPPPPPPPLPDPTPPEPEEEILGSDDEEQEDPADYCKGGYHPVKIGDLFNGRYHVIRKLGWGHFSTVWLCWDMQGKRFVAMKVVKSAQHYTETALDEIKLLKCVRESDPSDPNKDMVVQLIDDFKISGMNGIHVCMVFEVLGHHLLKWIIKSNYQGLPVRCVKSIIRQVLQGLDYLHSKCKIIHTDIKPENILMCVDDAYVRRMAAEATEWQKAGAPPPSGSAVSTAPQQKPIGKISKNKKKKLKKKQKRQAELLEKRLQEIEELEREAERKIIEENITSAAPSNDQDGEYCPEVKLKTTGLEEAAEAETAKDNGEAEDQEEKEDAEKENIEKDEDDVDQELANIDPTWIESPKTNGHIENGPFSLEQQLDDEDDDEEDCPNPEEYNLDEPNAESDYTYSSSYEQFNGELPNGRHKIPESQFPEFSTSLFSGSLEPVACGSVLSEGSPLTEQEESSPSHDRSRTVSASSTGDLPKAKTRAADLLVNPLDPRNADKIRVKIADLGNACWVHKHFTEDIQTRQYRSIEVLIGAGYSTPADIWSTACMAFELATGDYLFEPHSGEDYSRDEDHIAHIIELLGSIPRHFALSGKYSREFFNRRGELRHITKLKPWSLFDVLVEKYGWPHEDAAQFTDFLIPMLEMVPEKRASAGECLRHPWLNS
Sequence of SRSF protein kinase 3 (Homo sapiens) (Q9UPE1 whole entry): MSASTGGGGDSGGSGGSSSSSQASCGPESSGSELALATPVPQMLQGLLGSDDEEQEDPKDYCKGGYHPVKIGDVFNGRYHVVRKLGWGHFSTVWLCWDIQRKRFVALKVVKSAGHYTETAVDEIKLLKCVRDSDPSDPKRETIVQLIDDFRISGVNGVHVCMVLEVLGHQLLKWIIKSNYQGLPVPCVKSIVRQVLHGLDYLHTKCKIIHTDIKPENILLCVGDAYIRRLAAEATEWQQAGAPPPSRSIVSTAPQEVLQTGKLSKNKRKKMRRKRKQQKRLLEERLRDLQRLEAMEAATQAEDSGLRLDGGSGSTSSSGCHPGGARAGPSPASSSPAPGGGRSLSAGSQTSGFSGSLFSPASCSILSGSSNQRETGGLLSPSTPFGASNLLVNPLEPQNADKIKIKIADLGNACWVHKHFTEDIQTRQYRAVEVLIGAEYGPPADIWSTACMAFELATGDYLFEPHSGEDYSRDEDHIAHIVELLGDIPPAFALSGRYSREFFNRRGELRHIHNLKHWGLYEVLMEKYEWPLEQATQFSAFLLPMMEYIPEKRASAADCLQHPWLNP
Sequence of Serine/threonine-protein kinase 26 (Q9P289 2-416 limits assumed): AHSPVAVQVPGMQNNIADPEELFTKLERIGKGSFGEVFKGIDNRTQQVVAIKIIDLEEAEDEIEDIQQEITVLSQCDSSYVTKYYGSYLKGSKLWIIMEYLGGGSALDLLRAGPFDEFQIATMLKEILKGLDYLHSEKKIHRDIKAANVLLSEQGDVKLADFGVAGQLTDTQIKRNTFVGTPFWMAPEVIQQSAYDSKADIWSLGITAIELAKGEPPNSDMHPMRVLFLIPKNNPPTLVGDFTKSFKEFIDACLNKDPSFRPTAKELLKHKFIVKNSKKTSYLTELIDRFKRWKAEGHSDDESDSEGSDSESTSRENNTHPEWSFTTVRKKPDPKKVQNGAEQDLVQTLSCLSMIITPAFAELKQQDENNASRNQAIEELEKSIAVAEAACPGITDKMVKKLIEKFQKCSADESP

SMILES: Nc1cnc(N2CCc3cc(S(=O)(=O)Nc4c(F)cc(Cl)cc4F)cc(N4CCCC4=O)c32)nc1 [TP-020n]
- % of control [1]: 100%

- % of inhibition ([2]; at 0.01 µM): 6.9%
- % of inhibition ([2]; at 0.04 µM): -23%
- % of inhibition ([2]; at 0.2 µM): -5.5%
- % of inhibition ([2]; at 1 µM): 11.7%
- % of inhibition ([2]; at 5 µM): 19.9%
SMILES: CC[C@@H]1[C@H](F)C(=O)N[C@@H]1COc1nccc2cc(C(N)=O)c(OC)cc12 [ZIMLOVISERTIB]

- % of control ([3]; at 1 µM): 97%
- % of control ([3]; at 5 µM): 92%
SMILES: C=CC(=O)Nc1cccc(C(=O)Nc2ccc(Nc3cc(-c4[nH]c(SC)nc4C)ccn3)cc2)c1

SMILES: COc1cc(Nc2nc(C)cc(-c3cnn4nc(OC)ccc34)n2)cc(C(F)(F)F)c1
- % of control [4]: 85%

SMILES: O=C(NOC[C@H](O)CO)c1ccc(F)c(F)c1Nc1ccc(I)cc1F
- % of control [5]: 100%

- % of inhibition [6]: 91%
SMILES: Cn1cc(Nc2nccc(N3CC4CCC(C3)N4C(=O)[C@@H]3CC3(F)F)n2)cn1
